This note sets out measurements from US20220313780A1, “METHODS AND COMPOSITIONS FOR TREATING INFLAMMATORY CONDITIONS” (THE SCRIPPS RESEARCH INSTITUTE, priority 2019, published 2022).

One experiment has as its system IL-1β. The experiment in a line: IL-1β release (Quantikine ELISA) from THP1 cells treated with LPS and ATP. In kind it is cell-based, human. The settings on record: APC 4 μg/mL, TR47 50 μM, P3R 50 μM or TR47/P3R 8 nM & 500 nM for 1 hour before LPS and ATP. Here is the method: THP1 cells were plated at a final concentration of 1×10^6/mL in 96 well plates and incubated with PMA (0.5 μM) for 3 hours 37° C. in supplemented RPMI. Media was subsequently changed every 24 hours for 3 days. Selected wells were treated with APC (4 μg/mL), TR47 (50 μM), P3R (50 μM), or TR47/P3R (8 nM & 500 nM, respectively) for 1 hour, washed with DPBS, and incubated with LPS (1 μg/mL) for 3 hours at 37° C. in serum-free RPMI. Cells were washed with DPBS and incubated with ATP (5 mM) in the presence or absence of 10 μM YVAD (caspase 1 inhibitor) for 45 minutes, and the resulting cell supernatant was used in the IL-1(3 Quantikine ELISA following manufacturer's (R&D) directions measuring absorbance, and the concentration of IL-1(3 was calculated following measurement of the standard curve. Data points represent mean±SEM of at least 3 independent experiments. *P<0.05 (vs. LPS+ATP).
[…]. THP1 cells were plated at a final concentration of 1×10^6/mL in 96 well plates and incubated with PMA (0.5 μM) for 3 hours 37° C. in supplemented RPMI. […] Cell supernatants were carefully collected and frozen until assayed using the IL-1β Quantikine ELISA following the manufacturer's (R&D Systems) directions, measuring absorbance. The concentration of IL-1β was calculated following measurement of the standard curve according to the manufacturer's directions.
(In general: In an ELISA, binding on a coated surface is turned into a signal by an enzyme label.)

Experiment [1] has as its system endothelial cells (EA.hy926). Kind of experiment: Transendothelial Electric Resistance (TER) assay of thrombin-induced endothelial barrier disruption. The following applies: peptide at 5 to 50 nM. In kind it is cell-based. The text has this: The bottom curve in each panel of the figure is labeled as IIa for thrombin alone and represents the observed effects for thrombin (IIa) in the absence of peptide. In each panel, IIa was always present for each peptide added. The number in each panel indicates the concentration of each peptide for the respective curves. The peptide concentration of 0 is represented by the bottom curve labeled “IIa”. (A) the dose response inhibition over time of TER, expressed by Normalized Cell Index (NCI) by the PAR1 derived peptide P1(47-66) or TR47 using concentrations between 5 and 50 nM. (B) the dose response inhibition over time of NCI by the PAR3-derived peptide P3(42-65) or P3R using a 5 to 50 nM concentration range. (C) The NCI dose response inhibition over time by the short sequence PAR1-derived peptide P1(47-55) using a range of concentrations between 50 nM and 100 μM peptide. (D) The NCI dose response inhibition over time by the short sequence PAR3-derived peptide P3(42-54) using a range of concentrations between 1 μM and 200 μM peptide. (E) The NCI dose response inhibition over time by the hybrid peptide G10 in which the P1(47-55) peptide described in panel C was linked to a PAR3 peptide P3(51-65) by using 10 Gly residues. In this case the range of concentrations to study the dose response inhibition was between 3 and 50 nM peptide. An estimate for the percentage of activity for each peptide dilution in presence of thrombin can be quantified by obtaining the Area under the Curve (AUC) for each peptide dilution in comparison to the value for the AUC for thrombin alone in the absence of any peptide. These values were used to calculate the potency of each PAR peptide.
Transendothelial Electric Resistance (TER)-based assays were used to monitor the disruption of endothelial barrier integrity caused by thrombin. The anti-inflammatory, vasculoprotective actions of different PAR peptides for protecting against thrombin-induced vascular leakage on cultured endothelial cells (EA.hy926) were followed in real time using an iCELLigence machine (ACEA Biosciences Inc, San Diego, Calif.). EA.hy926 cells at a density of 10,000/well were pipetted into the wells of gold-plated microelectrode sensor (L8, Acea Biosciences). Subsequently, the increase of electrical resistance was monitored as cells grew and spread out on the microelectrodes to obtain confluence (reaching a plateau) over the TER plates connected to the recording instrument that detected in real time the changes in TER for each well. The effects of different PAR-derived peptides at the indicated concentrations were tested for dose-response inhibition of thrombin's effects when each of the peptide dilutions was added 30 min prior to the addition of thrombin (0.25 nM final in all wells). The percentage of inhibition was proportional to the increase in TER signal over time. Cell index values, reflecting TER signals, were normalized prior to addition of thrombin following manufacturer's directions.

As for “GAPPNSFEEFPFSALEGWTGATIT [P3R, PAR3-derived 24-mer peptide]”, in the experiment with IL-1β, the “generation and release of IL-1β” value was “significantly suppressed”. The “effect on thrombin-induced disruption of endothelial barrier” value in experiment [1] is “had no significant effect”. As for “NPNDKYEPFWEDEEKNESGL [TR47, PAR1-derived 20 amino acid peptide]”, the “generation and release of IL-1β” value in the experiment on IL-1β is given as “significantly suppressed”.
